Data taken from patent publication US10010619B2, “Bipartite inhibitors of bacterial RNA polymerase” (priority 2011, dated 2018).
In brackets after ≈: the same amount, converted by molar mass. Read-outs that look alike come from different tables or passages of the source.

Tests used:
[1] = system: Enterococcus faecalis ATCC 19433; assay: Broth microdilution MIC, E. faecalis; format: cell-based; details: ATCC19433
Source text: (§1) Minimum inhibitory concentrations (MICs) for Staphylococcus aureus ATCC 12600, Enterococcus faecalis ATCC 19433, Acinetobacter baumannii ATCC 19606, and Escherichia coli D21f2tolc (Fralick, J. and Burns-Keliher, L. (1994) J. Bacteriol. 176, 6404-6406) were quantified using broth microdilution assays as described [Clinical and Laboratory Standards Institute (CLSI/NCCLS) (2009) Methods for Dilution Antimicrobial Susceptibility Tests for Bacteria That Grow Aerobically; Approved Standard, Eighth Edition. CM Document M07-A8 (CLIS, Wayne Pa.)].

[2] = system: Escherichia coli D21f2tolC; assay: Broth microdilution MIC, E. coli D21f2tolC; format: cell-based
Source text: as §1

[3] = biological target: T1, rifamycin-resistant Escherichia coli RNAP derivative ([Asn516]β-RNAP) (Escherichia coli, UniProt P0A8V2, D516N); assay: Fluorescence-detected RNA polymerase assay, rifamycin-resistant RNAP derivative; format: biochemical
T1 construct: made in house
Procedure: (§2) Fluorescence-detected RNA polymerase assays with E. coli RNA polymerase were performed by a modification of the procedure of Kuhlman et al., 2004 [Kuhlman, P., Duff, H. and Galant, A. (2004) A fluorescence-based assay for multisubunit DNA-dependent RNA polymerases. Anal. Biochem. 324, 183-190]. Reaction mixtures contained (20 μl): 0-100 nM test compound, 75 nM Escherichia coli RNA polymerase σ^70 holoenzyme or Escherichia coli RNA polymerase σ^70 holoenzyme derivative (prepared as in Feklistov, A., Mekler, V., Jiang, Q., Westblade, L., Irschik, H., Jansen, R., Mustaev, A., Darst, S., and Ebright, R. (2008) Proc. Natl. Acad. Sci. USA 105, 14820-14825), 20 nM 384 bp DNA fragment containing the bacteriophage […] N25 promoter, 100 μM ATP, 100 μM GTP, 100 μM UTP, 100 μM CTP, 50 mM Tris-HCl, pH 8.0, 100 mM KCl, 10 mM MgCl2, 1 mM DTT, 10 μg/ml bovine serum albumin, and 5.5% glycerol. Reaction components other than DNA and NTPs were pre-incubated for 10 min at 37° C. Reactions were carried out by addition of DNA and incubation for 5 min at 37° C., followed by addition of NTPs and incubation for 60 min at 37° C. DNA was removed by addition of 1 μl 5 mM CaCl2 and 2 U DNaseI (Ambion, Inc.), followed by incubation for 90 min at 37° C. RNA was quantified by addition of 100 μl RiboGreen RNA Quantitation Reagent (Invitrogen, Inc.; 1:500 dilution in Tris-HCl, pH 8.0, 1 mM EDTA), followed by incubation for 10 min at 25° C., followed by measurement of fluorescence intensity [excitation wavelength=485 nm and emission wavelength=535 nm; QuantaMaster QM1 spectrofluorimeter (PTI, Inc.)]. IC50 is defined as the concentration of inhibitor resulting in 50% inhibition of RNA polymerase activity.

[4] = biological target: T2, GE23077-resistant Escherichia coli RNAP derivative ([Asp565]β-RNAP) (Escherichia coli, UniProt P0A8V2, E565D); assay: biochemical
T2 construct: made in house
Procedure: as §2, with “Reactions were carried out by addition of DNA and incubation for 5 min at 37° C., followed by addition of NTPs and incubation for 60 min at 37° C. DNA was removed by addition of 1 μl 5 mM CaCl2 and 2 U DNaseI (Ambion, Inc.), followed by incubation for 90 min at 37° C.” left out, “IC50 is defined as the concentration of inhibitor resulting in 50% inhibition of RNA polymerase activity.” left out

[5] = system: Acinetobacter baumannii ATCC 19606; assay: Broth microdilution MIC, A. baumannii; format: cell-based; details: ATCC19606
Source text: as §1

[6] = system: Staphylococcus aureus ATCC 12600; assay: Broth microdilution MIC, S. aureus; format: cell-based; details: ATCC12600
Source text: as §1

| Structure (SMILES) | MIC [1] [mg/L] | MIC [2] [mg/L] | IC50 [3] [µM] | potency relative to rifamycin SV on [Asn516]β RNAP ([3]; ratio of IC50s, times higher than rifamycin SV) [times] | IC50 [4] [µM] | potency relative to GE23077 on [Asp565]β RNAP ([4]; ratio of IC50s, times higher than GE23077) | MIC [5] [mg/L] | MIC [6] [mg/L] | IC50 ([3]; read-out: IC50, rifamycin-resistant derivative of Escherichia coli RNAP [Asn516]β RNAP) [µM] |
| --- | --- | --- | --- | --- | --- | --- | --- | --- | --- |
| CO[C@H]1/C=C/O[C@@]2(C)Oc3c(C)c(O)c4c(O)c(c(NC(C)C(C)C(=O)NCC5NC(=O)CNC(=O)C(O)CNC(=O)C(C(C)O)NC(=O)C(C(O)C(O)C(N)=O)NC(=O)C(C(C)C)CC(=O)C(CO)NC5=O)c(O)c4c3C2=O)NC(=O)/C(C)=C\C=C\[C@H](C)C(O)C(C)[C@@H](O)[C@@H](C)[C@H](OC(C)=O)[C@@H]1C (stereo partly drawn) [compound 3, {rifamycin SV}-NH-{descarboxy-GE23077}] | 6 (≈ 4.08 µM) | 2 (≈ 1.36 µM) | 0.15 | 80 | 0.02 | > 5,000 times | 10 (≈ 6.8 µM) | 0.05 (≈ 0.034 µM) | – |
| CO[C@H]1/C=C/O[C@@]2(C)Oc3c(C)c(O)c4c(O)c(cc(O)c4c3C2=O)NC(=O)/C(C)=C\C=C\[C@H](C)[C@H](O)[C@@H](C)[C@@H](O)[C@@H](C)[C@H](OC(C)=O)[C@@H]1C [rifamycin SV, reference compound] | – | – | – | – | – | – | – | – | 12 |
